Patent publication US6734139B1, “N-aryl-uracile-based herbicides” (priority 1999, dated 2004)
Several values for one entry are separate records, joined by “and”; a condition that tells them apart may be missing. Identical values can stand only once. Like-named read-outs stand apart in the source and are kept apart here. Blank lines part the entries; values can stand above or below the compound they belong to.

Experiments:
Format in all cases: in vivo
weeds = experiment: Pre-emergence test (herbicidal action against weeds, Colby)
From the text: (§1) The expected action for a given combination of two herbicides can be calculated as follows (cf. COLBY, S. R.: “Calculating synergistic and antagonistic responses of herbicide combinations”, Weeds 15, Pages 20-22, 1967):
(§2) If the actual damage exceeds the calculated value, the combination has a superadditive effect, that is to say a synergistic effect.
The theoretically expected activity for a given combination of three herbicides can likewise be found in the literature mentioned above.
(§3) Solvent: 2 to 3 parts by weight of acetone or N,N-dimethyl-formamide
(§4) Emulsifier: 1 part by weight of alkylaryl polyglycol ether
(§5) To produce a suitable preparation of active compound, 1 part by weight of active compound is mixed with the stated amount of solvent, the stated amount of emulsifier is added and the concentrate is diluted with water to the desired concentration. Formulated products are dissolved in water and then diluted with water to the desired concentration.
(§6) The solutions of the other mixing components (active compounds or safeners) are prepared analogously. The separately prepared solutions of the various mixing components are then combined and, if appropriate, additional substances (formulation auxiliaries, additives, etc.) are added and, if appropriate, water is added to prepare the desired dilution.
(§7) Seeds of the test plants are sown in standard soil. After 24 hours, the soil is sprayed with the preparation of active compound such that the particular amount of active compound desired in each case is applied per unit area. The concentration of active compound in the spray liquor is chosen such that the particular amount of active compound desired in each case is applied in 500 litres of water per hectare. The containers with the test plants are kept in a greenhouse at controlled temperature and controlled illumination until evaluation.
(§8) After three weeks, the degree of damage to the plants is rated in % damage in comparison to the development of the untreated control. The figures denote
(§9) 0%=no effect/no damage (like untreated control)

Galium = experiment: Post-emergence test (herbicidal action, Colby): Galium; settings: 125 g of a.i./ha
Veronica = experiment: Post-emergence test (herbicidal action, Colby): Veronica; settings: single active compound at 8 g of a.i./ha
From the text: as §1, §2, §5, §6, §8, §9

Solanum = experiment: Post-emergence test (herbicidal action, Colby): Solanum; settings: single active compound at 15 g of a.i./ha
From the text: as §1, §2, §5, §6, §8, §9

Stellaria = experiment: Pre-emergence test (herbicidal action, Colby): Stellaria
Ipomoea = experiment: Pre-emergence test (herbicidal action, Colby): Ipomoea; settings: 60 g of a.i./ha
Datura = experiment: Pre-emergence test (herbicidal action, Colby): Datura
Matricaria = experiment: Pre-emergence test (herbicidal action, Colby): Matricaria
Cyperus = experiment: Pre-emergence test (herbicidal action, Colby): Cyperus
Abutilon = experiment: Pre-emergence test (herbicidal action, Colby): Abutilon
Digitaria = experiment: Pre-emergence test (herbicidal action, Colby): Digitaria
Polygonum = experiment: Pre-emergence test (herbicidal action, Colby): Polygonum
Alopecurus = experiment: Pre-emergence test (herbicidal action, Colby): Alopecurus
Summer wheat = experiment: Post-emergence test in barley and wheat: summer wheat; settings: for damage, Summer wheat (5 days) / damage, Summer wheat (21 days) / damage, Summer wheat (22 days): 0.1% Renex-36
Procedure: as §5, §6, §9

Winter wheat = experiment: Post-emergence test in barley and wheat: winter wheat
Procedure: as §5, §6, §8, §9

Winter barley = experiment: Post-emergence test in barley and wheat: winter barley; settings: for damage, Winter barley (21 days): 0.1% Renex-36
Procedure: as §5, §6, §9

Durum wheat = experiment: Post-emergence test in barley and wheat: durum wheat
Procedure: as §5, §6, §8, §9

maize = experiment: Pre-emergence test in maize (crop plant compatibility)
Procedure: as §3, §4, §5, §6, §7, §9

Echinochloa = experiment: Pre-emergence test (herbicidal action, Colby): Echinochloa; settings: 250 g of a.i./ha
Setaria = experiment: Pre-emergence test (herbicidal action, Colby): Setaria; settings: 250 g of a.i./ha

SMILES: CCNc1nc(Cl)nc(NC(C)C)n1 [atrazine, 6-chloro-4-ethylamino-2-isopropylamino-1,3,5-triazine]
Avena (pre-emergence test) (weeds; Table A25, 500 g of a.i./ha): 80
Bromus (pre-emergence test) (weeds; Table A25, 500 g of a.i./ha): 70
Cyperus (pre-emergence test) (weeds; Table A25, 500 g of a.i./ha): 50
Lolium (pre-emergence test) (weeds; Table A25, 500 g of a.i./ha): 90

SMILES: CC(C)N.O=C(O)CNCP(=O)(O)O [glyphosate-isopropylammonium, N-phosphonomethyl-glycine (isopropylammonium salt)]
Galium (Galium): 0%

SMILES: COCc1cnc(C2=NC(C)(C(C)C)C(=O)N2)c(C(=O)O)c1 (stereo not drawn) [imazamox, 2-(4,5-dihydro-4-methyl-4-isopropyl-5-oxo-1H-imidazol-2-yl)-5-methoxymethyl-pyridine-3-carboxylic acid]
damage, Veronica (Veronica): 0%
damage, Solanum (Solanum): 0%

SMILES: CS(=O)(=O)c1ccc(C(=O)C2C(=O)CCCC2=O)c(Cl)c1 [sulcotrione, 2-(2-chloro-4-methylsulphonyl-benzoyl)-cyclohexane-1,3-dione]
Stellaria (Stellaria; 60 g of a.i./ha): 80%
Ipomoea (Ipomoea): 80%
Datura (Datura; 30 g of a.i./ha): 50%
Matricaria (Matricaria; 30 g of a.i./ha): 40%
Cyperus (Cyperus; 30 g of a.i./ha): 90%
pest or weed control at 30 g/ha (Abutilon; Abutilon, read-out: Abutilon): 70%
pest or weed control at 60 g/ha (Abutilon; Abutilon, read-out: Abutilon): 80%

SMILES: COc1cc(OC)nc(NC(=O)NS(=O)(=O)c2cc(NC=O)ccc2C(=O)N(C)C)n1 [foramsulfuron, 2-[[[[(4,6-dimethoxy-2-pyrimidinyl)-amino]-carbonyl]-amino]-sulphonyl]-4-formylamino-N,N-dimethyl-benzamide]
Cassia (pre-emergence test) (weeds; Table A27, 15 g of a.i./ha): 50
Abutilon (pre-emergence test) (weeds; Table A27, 30 g of a.i./ha): 50
Polygonum (pre-emergence test) (weeds; Table A27, 30 g of a.i./ha): 40

SMILES: CS(=O)(=O)c1cc(C(F)(F)F)ccc1C(=O)c1cnoc1C1CC1 [isoxaflutole, (5-cyclopropyl-isoxazol-4-yl)-(2-methylsulphonyl-4-trifluoromethyl-phenyl)-methanone]
Digitaria (Digitaria; 30 g of a.i./ha): 90%
Polygonum (Polygonum; 30 g of a.i./ha): 0%
Avena (pre-emergence test) (weeds; Table A26, 30 g of a.i./ha): 30
Cassia (pre-emergence test) (weeds; Table A26, 30 g of a.i./ha): 70
Digitaria (pre-emergence test) (weeds; Table A26, 30 g of a.i./ha): 80
Echinochloa (pre-emergence test) (weeds; Table A26, 30 g of a.i./ha): 30
Lolium (pre-emergence test) (weeds; Table A26, 30 g of a.i./ha): 30
Matricaria (pre-emergence test) (weeds; Table A26, 30 g of a.i./ha): 20
Setaria (pre-emergence test) (weeds; Table A26, 30 g of a.i./ha): 30
Echinochloa (pre-emergence test) (weeds; Table A26, 60 g of a.i./ha): 40
Lolium (pre-emergence test) (weeds; Table A26, 60 g of a.i./ha): 50
Matricaria (pre-emergence test) (weeds; Table A26, 60 g of a.i./ha): 40
Setaria (pre-emergence test) (weeds; Table A26, 60 g of a.i./ha): 30
Datura (Datura; 60 g of a.i./ha): 90%
Alopecurus (Alopecurus; 60 g of a.i./ha): 40%
pest or weed control at 30 g/ha (Abutilon; 30 g of a.i./ha, read-out: Abutilon): 80%

Summer wheat (5 days) (Summer wheat; 15 g of a.i./ha): 40%
Summer wheat (21 days) (Summer wheat; 15 g of a.i./ha): 30%
Summer wheat (5 days) (Summer wheat; 30 g of a.i./ha): 50%
Summer wheat (21 days) (Summer wheat; 30 g of a.i./ha): 40%
Winter wheat (5 days) (Winter wheat; 4 g of a.i./ha): 20%
Winter wheat (20 days) (Winter wheat; 4 g of a.i./ha): 10%
Winter wheat (22 days) (Winter wheat; 4 g of a.i./ha): 20%
Winter wheat (5 days) (Winter wheat; 8 g of a.i./ha): 30%
Winter wheat (20 days) (Winter wheat; 8 g of a.i./ha): 10%
Winter wheat (22 days) (Winter wheat; 8 g of a.i./ha): 20%
Winter wheat (5 days) (Winter wheat; 15 g of a.i./ha): 30%
Winter wheat (20 days) (Winter wheat; 15 g of a.i./ha): 20%
Winter barley (5 days) (Winter barley; 4 g of a.i./ha): 30%
Winter barley (21 days) (Winter barley; 4 g of a.i./ha): 50%
Winter barley (22 days) (Winter barley; 4 g of a.i./ha): 10%
Winter barley (5 days) (Winter barley; 8 g of a.i./ha): 40%
Winter barley (21 days) (Winter barley; 8 g of a.i./ha): 50%
Winter barley (22 days) (Winter barley; 8 g of a.i./ha): 20%
Winter barley (5 days) (Winter barley; 15 g of a.i./ha): 60% and 50%
Winter barley (5 days) (Winter barley; 30 g of a.i./ha): 50%
Winter barley (21 days) (Winter barley; 30 g of a.i./ha): 20%
Durum wheat (5 days) (Durum wheat; 15 g of a.i./ha): 20%
Durum wheat (21 days) (Durum wheat; 15 g of a.i./ha): 20%
Durum wheat (5 days) (Durum wheat; 30 g of a.i./ha): 30%
Durum wheat (21 days) (Durum wheat; 30 g of a.i./ha): 20%
Maize (7 days) (maize; Table A30, 60 g of a.i./ha): 30%
Maize (7 days) (maize; Table A30, 90 g of a.i./ha): 60%
Maize (12 days) (maize; Table A30, 90 g of a.i./ha): 60%
Maize (21 days) (maize; Table A30, 90 g of a.i./ha): 30%
SMILES: CCS(=O)(=O)Nc1cc(-n2c(=O)cc(C(F)(F)F)n(C)c2=O)c(F)cc1C(N)=S [I-6, 2-(ethylsulphonylamino)-5-fluoro-4-[3-methyl-2,6-dioxo-4-trifluoromethyl-3,6-dihydro-1(2H)-pyrimidinyl]-benzenecarbothioamide]
damage, Summer wheat (5 days) (Summer wheat; 15 g of a.i./ha): 50%
damage, Summer wheat (21 days) (Summer wheat; 15 g of a.i./ha): 20%
damage, Summer wheat (22 days) (Summer wheat; 15 g of a.i./ha): 20%
damage, Summer wheat (5 days) (Summer wheat; 30 g of a.i./ha): 60%
damage, Summer wheat (21 days) (Summer wheat; 30 g of a.i./ha): 30%
damage, Summer wheat (22 days) (Summer wheat; 30 g of a.i./ha): 30%
damage, Winter wheat (21 days) (Winter wheat; 15 g of a.i./ha, 21 days, 0.1% Renex-36): 10%
damage, Winter barley (21 days) (Winter barley; 15 g of a.i./ha): 20%
damage, Winter barley (21 days) (Winter barley; 30 g of a.i./ha): 30%
damage, Durum wheat (5 days) (Durum wheat; 15 g of a.i./ha, 0.1% Renex-36): 20%
damage, Durum wheat (5 days) (Durum wheat; 30 g of a.i./ha, 0.1% Renex-36): 30%
damage, Durum wheat (22 days) (Durum wheat; 30 g of a.i./ha, 22 days, 0.1% Renex-36): 20%

SMILES: CCCN(CCC)c1c([N+](=O)[O-])cc(C(F)(F)F)cc1[N+](=O)[O-] [trifluralin, 1-amino-2,6-dinitro-N,N-di-propyl-4-trifluoromethyl-benzene]
Cassia (pre-emergence test) (weeds; Table A24, 250 g of a.i./ha): 80
Lolium (pre-emergence test) (weeds; Table A24, 250 g of a.i./ha): 95
Setaria (pre-emergence test) (weeds; Table A24, 250 g of a.i./ha): 95
Echinochloa (pre-emergence test) (weeds; Table A24, 500 g of a.i./ha): 95
Veronica (pre-emergence test) (weeds; Table A24, 500 g of a.i./ha): 95

Maize (7 days) (maize; Table A32, 60 g of a.i./ha): 20%
Maize (12 days) (maize; Table A32, 60 g of a.i./ha): 30%
Maize (21 days) (maize; Table A32, 60 g of a.i./ha): 18%
Maize (7 days) (maize; Table A32, 90 g of a.i./ha): 60%
Maize (12 days) (maize; Table A32, 90 g of a.i./ha): 70%
Maize (21 days) (maize; Table A32, 90 g of a.i./ha): 64%
SMILES: CCS(=O)(=O)N(C(=O)c1cccs1)c1cc(-n2c(=O)cc(C(F)(F)F)n(N)c2=O)c(F)cc1C#N [I-5, N-[5-(3-amino-2,6-dioxo-4-trifluoromethyl-3,6-dihydro-1(2H)-pyrimidinyl)-2-cyano-4-fluoro-phenyl]-N-(2-thienyl-carbonyl)-1-ethanesulphonamide]

SMILES: CCOCN(C(=O)CCl)c1c(C)cccc1CC [acetochlor, 2-chloro-N-(ethoxymethyl)-N-(2-ethyl-6-methyl-phenyl)-acetamide]
Echinochloa (Echinochloa): 80%
Setaria (Setaria): 80%
Stellaria (Stellaria; 125 g of a.i./ha): 80%
Digitaria (Digitaria; 125 g of a.i./ha): 80%
Polygonum (Polygonum; 125 g of a.i./ha): 30%
Polygonum (Polygonum; 250 g of a.i./ha): 30%
Chenopodium (pre-emergence test) (weeds; Table A20, 125 g of a.i./ha): 30
Datura (pre-emergence test) (weeds; Table A20, 125 g of a.i./ha): 30
Galium (pre-emergence test) (weeds; Table A20, 125 g of a.i./ha): 0
Ipomoea (pre-emergence test) (weeds; Table A20, 125 g of a.i./ha): 0
Datura (pre-emergence test) (weeds; Table A20, 250 g of a.i./ha): 50
Galium (pre-emergence test) (weeds; Table A20, 250 g of a.i./ha): 20
Ipomoea (pre-emergence test) (weeds; Table A20, 250 g of a.i./ha): 20
Lolium (pre-emergence test) (weeds; Table A20, 250 g of a.i./ha): 90
Matricaria (Matricaria; 125 g of a.i./ha): 90%
Alopecurus (Alopecurus; 125 g of a.i./ha): 30%
Cyperus (Cyperus; 125 g of a.i./ha): 60%
Cyperus (Cyperus; 250 g of a.i./ha): 60%
pest or weed control at 125 g/ha (Abutilon; 125 g of a.i./ha): 0%
pest or weed control at 250 g/ha (Abutilon; 250 g of a.i./ha): 40%
